Data as given in ChEMBL document CHEMBL4270597, “Donepezil-butylated hydroxytoluene (BHT) hybrids as Anti-Alzheimer's disease agents with cholinergic, antioxidant, and neuroprotective properties” (Eur J Med Chem, 2018).
Activity calls are given as the source filed them. The calls are words filed in the database; no cut-off is given here.

Assays:
[1] = Antioxidant activity assessed as trolox equivalent of AAPH-induced radical scavenging activity preincubated for 15 mins followed by AAPH addition measured every minute for 120 mins by ORAC-FL based fluorescein assay; format: functional
BV-2 [2] = test: Antineuroinflammatory activity in mouse BV2 cells assessed as inhibition of LPS-induced NO production at 10 to 30 uM after 24 hrs by Griess assay; format: functional, cell-based
PC-12 [3] = test: Neuroprotective activity against H2O2-induced apoptosis in rat PC12 cells assessed as late apoptotic cells at 2.5 uM after 24 hrs by Annexin V-FITC/propidium iodide staining-based flow cytometry (reference value: 25.3%); format: functional
PC-12 [4] = test: Cytotoxicity against rat PC12 cells assessed as decrease in cell viability at 30 uM after 24 hrs by MTT assay; format: cell-based; conditions: pc-12, 24 h
PC-12 [5] = test: Neuroprotective activity against H2O2-induced apoptosis in rat PC12 cells assessed as necrotic cells at 10 uM after 24 hrs by Annexin V-FITC/propidium iodide staining-based flow cytometry (reference value: 4.9%); format: functional
Mus musculus [6] = test: Acute toxicity in mouse assessed as abnormal changes in liver at 2000 mg/kg, po measured continuously for first 4 hrs and intermittently for next 24 hrs and occasionally for 14 days by hematoxylin and eosin staining based microscopic method; format: organism-based; conditions: in vivo
Mus musculus [7] = test: Reversal of scopolamine-induced memory impairment in ICR mouse assessed as increase in step-through latency time administered orally for 10 consecutive days and 60 mins prior to training trial followed by scopolamine challenge at 30 mins post dose measured 24 hrs after training trial by passive avoidance test; format: functional, organism-based
Cholinesterase = Cholinesterase (Homo sapiens, UniProt P06276); test: Inhibition of human serum BuChE at 100 uM using butyrylthiocholine iodide as substrate incubated for 5 mins followed by substrate addition measured after 180 secs by Ellman's method relative to control
Sequence of Cholinesterase (P06276 whole entry): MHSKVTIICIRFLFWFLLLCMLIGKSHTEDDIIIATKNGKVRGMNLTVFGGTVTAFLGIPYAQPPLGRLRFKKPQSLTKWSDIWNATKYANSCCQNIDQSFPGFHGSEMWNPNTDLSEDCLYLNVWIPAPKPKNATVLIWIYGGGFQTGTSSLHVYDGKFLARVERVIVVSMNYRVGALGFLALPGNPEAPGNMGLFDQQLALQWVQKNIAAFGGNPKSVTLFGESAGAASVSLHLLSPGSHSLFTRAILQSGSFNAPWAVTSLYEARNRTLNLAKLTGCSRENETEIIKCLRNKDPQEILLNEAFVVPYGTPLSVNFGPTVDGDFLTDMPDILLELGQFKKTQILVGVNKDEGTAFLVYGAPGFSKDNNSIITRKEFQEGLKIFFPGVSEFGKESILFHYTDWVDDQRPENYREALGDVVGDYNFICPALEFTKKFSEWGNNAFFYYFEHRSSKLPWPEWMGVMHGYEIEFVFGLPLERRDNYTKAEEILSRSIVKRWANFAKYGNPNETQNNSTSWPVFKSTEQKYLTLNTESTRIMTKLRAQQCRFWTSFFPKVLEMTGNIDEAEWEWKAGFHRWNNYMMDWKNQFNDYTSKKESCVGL

Acetylcholinesterase = Acetylcholinesterase (Homo sapiens, UniProt P22303); test: Inhibition of human erythrocyte AChE using acetylthiocholine chloride as substrate incubated for 5 mins followed by substrate addition measured after 180 secs by Ellman's method
Sequence of Acetylcholinesterase (P22303 whole entry): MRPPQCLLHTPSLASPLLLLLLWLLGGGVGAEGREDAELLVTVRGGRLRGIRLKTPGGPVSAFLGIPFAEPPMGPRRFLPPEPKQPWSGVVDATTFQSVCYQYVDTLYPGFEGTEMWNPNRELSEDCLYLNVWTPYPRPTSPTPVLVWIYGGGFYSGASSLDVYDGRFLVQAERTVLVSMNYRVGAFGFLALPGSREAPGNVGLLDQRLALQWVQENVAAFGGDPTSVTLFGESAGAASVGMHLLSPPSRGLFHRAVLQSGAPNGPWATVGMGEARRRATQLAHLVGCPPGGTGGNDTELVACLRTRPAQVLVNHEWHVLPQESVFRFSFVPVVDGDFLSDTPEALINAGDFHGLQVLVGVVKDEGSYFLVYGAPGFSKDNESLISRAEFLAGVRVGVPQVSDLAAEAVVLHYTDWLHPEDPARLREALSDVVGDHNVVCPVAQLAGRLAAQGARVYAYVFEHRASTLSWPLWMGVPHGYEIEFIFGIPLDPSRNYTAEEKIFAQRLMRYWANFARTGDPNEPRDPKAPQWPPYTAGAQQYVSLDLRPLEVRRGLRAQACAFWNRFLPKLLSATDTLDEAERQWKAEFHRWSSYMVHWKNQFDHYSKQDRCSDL

[8] = biological target: Amyloid-beta precursor protein (Homo sapiens) (UniProt P05067); test: Inhibition of self-induced amyloid beta 42 (unknown origin) aggregation at 20 uM incubated for 46 to 48 hrs by thioflavin-T fluorescence assay relative to control
Sequence of Amyloid-beta precursor protein (Homo sapiens) (P05067 whole entry): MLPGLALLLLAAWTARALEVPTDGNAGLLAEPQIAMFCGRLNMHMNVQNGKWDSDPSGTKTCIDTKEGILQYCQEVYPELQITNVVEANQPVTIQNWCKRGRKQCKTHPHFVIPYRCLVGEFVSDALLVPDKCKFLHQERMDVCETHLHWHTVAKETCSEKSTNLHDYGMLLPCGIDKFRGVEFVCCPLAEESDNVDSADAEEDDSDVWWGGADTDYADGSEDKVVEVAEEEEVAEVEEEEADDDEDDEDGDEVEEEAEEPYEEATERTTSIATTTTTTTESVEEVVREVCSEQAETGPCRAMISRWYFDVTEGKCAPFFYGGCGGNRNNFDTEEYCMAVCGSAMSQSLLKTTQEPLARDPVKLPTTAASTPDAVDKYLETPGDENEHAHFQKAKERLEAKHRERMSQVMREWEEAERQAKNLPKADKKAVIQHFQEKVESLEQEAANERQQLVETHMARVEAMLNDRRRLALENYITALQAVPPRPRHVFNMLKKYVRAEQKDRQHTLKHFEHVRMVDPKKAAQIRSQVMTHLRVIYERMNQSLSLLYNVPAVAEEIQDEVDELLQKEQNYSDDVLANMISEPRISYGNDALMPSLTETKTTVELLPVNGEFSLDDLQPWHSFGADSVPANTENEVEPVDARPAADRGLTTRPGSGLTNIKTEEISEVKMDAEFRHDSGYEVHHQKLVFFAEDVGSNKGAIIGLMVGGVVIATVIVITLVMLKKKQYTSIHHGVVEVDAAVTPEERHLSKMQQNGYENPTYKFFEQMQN

PC-12 [9] = test: Neuroprotective activity against H2O2-induced apoptosis in rat PC12 cells assessed as viable cells at 2.5 uM after 24 hrs by Annexin V-FITC/propidium iodide staining-based flow cytometry (reference value: 68.4%); format: functional; conditions: PC-12, 24 h, read-out: Activity
BV-2 [10] = test: Inhibition of LPS-induced intracellular ROS production in mouse BV2 cells assessed as mean fluorescence intensity at 10 uM incubated with LPS for 18 hrs followed by compound addition measured after 36 hrs by DCFH-DA probe based flow cytometry (reference value: 493530); format: functional
Mus musculus [11] = test: Toxicity in ICR mouse assessed as mouse survival at 5 to 10 mg/kg, po administered for 10 consecutive days; format: organism-based; conditions: in vivo
BV-2 [12] = test: Inhibition of LPS-induced intracellular ROS production in mouse BV2 cells assessed as mean fluorescence intensity incubated with LPS for 18 hrs followed by compound addition measured after 36 hrs by DCFH-DA probe based flow cytometry; format: functional, cell-based
BV-2 [13] = test: Inhibition of LPS-induced intracellular ROS production in mouse BV2 cells assessed as mean fluorescence intensity at 20 uM incubated with LPS for 18 hrs followed by compound addition measured after 36 hrs by DCFH-DA probe based flow cytometry (reference value: 493530); format: functional
Mus musculus [14] = test: Acute toxicity in mouse assessed as mortality at 677 to 2000 mg/kg, po measured continuously for first 4 hrs and intermittently for next 24 hrs and occasionally for 14 days; format: organism-based; conditions: in vivo
PC-12 [15] = test: Neuroprotective activity against H2O2-induced apoptosis in rat PC12 cells assessed as early apoptotic cells at 10 uM after 24 hrs by Annexin V-FITC/propidium iodide staining-based flow cytometry (reference value: 1.4%); format: functional
[16] = Half life in Sprague-Dawley rat liver microsomes in presence of NADPH by UPLC/MS analysis; conditions: liver microsomes
Mus musculus [17] = test: Toxicity in ICR mouse assessed as diarrhea at 5 to 10 mg/kg, po administered for 10 consecutive days; format: organism-based; conditions: in vivo
Mus musculus [18] = test: Acute toxicity in mouse assessed as abnormal changes in lung at 2000 mg/kg, po measured continuously for first 4 hrs and intermittently for next 24 hrs and occasionally for 14 days by hematoxylin and eosin staining based microscopic method; format: organism-based; conditions: in vivo
Mus musculus [19] = test: Toxicity in ICR mouse assessed as emesis at 5 to 10 mg/kg, po administered for 10 consecutive days; format: organism-based; conditions: in vivo
[20] = biological target: T1, Amine oxidase [flavin-containing] B (Homo sapiens, UniProt P27338); test: Inhibition of human MAO-B using p-tyramine as substrate incubated for 15 mins followed by substrate addition measured for 20 mins by fluorescence assay
T1 sequence (P27338 whole entry): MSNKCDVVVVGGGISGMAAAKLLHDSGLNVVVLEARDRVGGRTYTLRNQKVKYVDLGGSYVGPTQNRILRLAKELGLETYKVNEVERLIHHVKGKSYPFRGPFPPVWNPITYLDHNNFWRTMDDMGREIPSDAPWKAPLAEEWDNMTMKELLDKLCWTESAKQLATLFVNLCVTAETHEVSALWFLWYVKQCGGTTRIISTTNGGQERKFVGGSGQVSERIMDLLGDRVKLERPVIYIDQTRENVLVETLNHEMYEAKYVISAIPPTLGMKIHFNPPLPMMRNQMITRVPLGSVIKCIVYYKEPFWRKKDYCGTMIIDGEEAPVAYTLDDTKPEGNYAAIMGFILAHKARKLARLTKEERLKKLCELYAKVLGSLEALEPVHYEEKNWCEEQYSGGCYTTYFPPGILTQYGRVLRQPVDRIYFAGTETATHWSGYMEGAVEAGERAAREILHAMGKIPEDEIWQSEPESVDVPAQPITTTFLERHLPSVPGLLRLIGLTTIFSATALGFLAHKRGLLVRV

PC-12 [21] = test: Reversal of H2O2-induced calcium overload in rat PC12 cells assessed as mean fluorescence intensity at 2.5 uM after 48 hrs by Fluo-3/AM probe based flow cytometry (reference value: 454014); format: functional
PC-12 [22] = test: Neuroprotective activity against H2O2-induced apoptosis in rat PC12 cells assessed as late apoptotic cells at 5 uM after 24 hrs by Annexin V-FITC/propidium iodide staining-based flow cytometry (reference value: 25.3%); format: functional

**Q.** What does the source list for CC(C)(C)c1cc(/C=C/C(=O)NCCC2CCN(Cc3ccccc3F)CC2)cc(C(C)(C)C)c1O?
**A.** Activity (mmolequiv/mmol) [1]: 1.64; inhibition (BV-2 [2]): Active; Activity (PC-12 [3]): 14.8%; Activity (PC-12 [4]): Toxic; Activity (PC-12 [5]): 1.6%; Activity (Mus musculus [6]): Non-Toxic; Activity (Mus musculus [7]): Dose-dependent effect; inhibition (Cholinesterase): 38.4%; IC50 (Acetylcholinesterase): 750 nM; inhibition [8]: 43.5 to 56.7%; viability at 2.5 µM (PC-12 [9]): 81.5%; Flu intensity (BV-2 [10]): 390948; Activity (Mus musculus [11]): Non-Toxic; inhibition (BV-2 [12]): Dose-dependent effect; Flu intensity (BV-2 [13]): 310450; Activity (Mus musculus [14]): Non-Toxic; Activity (PC-12 [15]): 0.3%; half-life [16]: 89.3 min; Activity (Mus musculus [17]): Non-Toxic; Activity (Mus musculus [18]): Non-Toxic; Activity (Mus musculus [19]): Non-Toxic; IC50 [20]: 7.4 µM; Flu intensity (PC-12 [21]): 347633; Activity (PC-12 [22]): 9%
